Laboratory results: patent EP0579622B1, “NEW PHENOL ETHERS, PROCESS FOR PRODUCING THE SAME AND MEDICAMENTS CONTAINING THESE COMPOUNDS” (BOEHRINGER MANNHEIM GMBH, priority 1991, dated 1992)

What was measured:
[1] = biological target: T1, Lipoxydase aus Sojabohne (Glycine max, UniProt P08170); assay: Inhibition of LDL oxidation by lipoxydase (diene formation at A 234); assay type: biochemical; details: 100 µg LDL-Protein, 500 U/ml Lipoxydase, 37° C, 0-10 µM Testsubstanz, diene formation over 3 h
T1 construct: purchased Sigma, München
T1 sequence (P08170 1-839): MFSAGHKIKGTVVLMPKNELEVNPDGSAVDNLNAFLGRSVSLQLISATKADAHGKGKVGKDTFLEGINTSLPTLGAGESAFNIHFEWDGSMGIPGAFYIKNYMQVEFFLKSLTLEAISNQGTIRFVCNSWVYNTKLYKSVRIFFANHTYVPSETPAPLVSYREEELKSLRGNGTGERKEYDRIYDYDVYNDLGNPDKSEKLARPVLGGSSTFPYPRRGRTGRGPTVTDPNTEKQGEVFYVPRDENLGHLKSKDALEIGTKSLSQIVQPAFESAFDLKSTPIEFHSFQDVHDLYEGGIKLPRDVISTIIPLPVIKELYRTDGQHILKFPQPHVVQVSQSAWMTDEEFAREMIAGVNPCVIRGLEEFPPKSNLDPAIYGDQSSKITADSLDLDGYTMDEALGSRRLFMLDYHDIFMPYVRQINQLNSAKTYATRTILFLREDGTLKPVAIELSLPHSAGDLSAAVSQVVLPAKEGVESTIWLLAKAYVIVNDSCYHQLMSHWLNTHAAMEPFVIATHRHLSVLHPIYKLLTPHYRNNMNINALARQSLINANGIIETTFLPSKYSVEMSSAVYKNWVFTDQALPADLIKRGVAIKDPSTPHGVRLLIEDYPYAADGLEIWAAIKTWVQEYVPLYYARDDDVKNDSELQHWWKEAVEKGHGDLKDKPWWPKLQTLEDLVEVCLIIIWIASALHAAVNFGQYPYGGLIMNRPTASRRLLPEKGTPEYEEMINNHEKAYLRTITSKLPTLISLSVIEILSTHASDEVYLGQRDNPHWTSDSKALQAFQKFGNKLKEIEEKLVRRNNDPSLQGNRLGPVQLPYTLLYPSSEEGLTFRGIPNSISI
Method: (Tab. 2). […] Die Bildung von […] aus der Oxidation […] des LDL wird bei A 234 über 3 h verfolgt und ist im Kontrollansatz ca. 0.075/h. Die Inhibition der Dienbildung dient als Maß der Lipoxydaseaktivität am LDL-substrat.

[2] = system: P388D.1 murine Makrophagen; assay: Inhibition of LDL-oxidation-dependent cholesterol ester formation in P388 macrophages; assay type: cell-based; details: 10 µm test substance, 18 Stunden, control without LDL 0.44, control + LDL 1.81
Method: (§1) Die neuen Phenolether wirken LDL-protektiv. Bei Inkubation des LDL it Redoxmetallen hemmen sie die Bildung von thiobarbitursäure-reaktiven Lipidperoxiden (Tab. 1), bei der Oxidation des LDL durch Lipoxydase wird eine selektive Hemmwirkung deutlich (Tab. 2). Unter Testbedingungen, die zu einem wirksamen LDL-Schutz führen, wird die Cholesterinesterbildung in kultivierten Makrophagen gehemmt (Tab. 3).
125 µg/ml LDL-Protein wurde in F 10-Medium +1 µM Cu⁺⁺ für 5 Stunden inkubiert, um LDL-Antioxidantien zu depletieren. Dann wurden P388D.1 murine Makrophagen (1 x 10⁶ Zellen/ml) in F 10-Medium + 10 % FCS für 18 Stunden mit diesem Ansatz weiter inkubiert. Unter diesen Versuchsbedingungen bleibt das Verhältnis freies Cholesterin (FC)/Protein konstant bei 0.2 µg/mg, während die Cholesterinester in Abhängigkeit von LDL im Medium in den P388D.1 Makrophagen ansteigen, hier ausgedrückt als Anstieg des Verhältnisses von Cholesterinester/freiem Cholesterin […]. Tabelle 4

[3] = system: LDL; assay: Inhibition of Cu++-dependent LDL oxidation (TBARS formation); assay type: biochemical; details: 10 µM Testsubstanz, 125 µg/ml LDL-protein + 10 µM Cu++, 37° C
Method: as §1
125 µg/ml LDL-protein + 10 µM Cu⁺⁺ wurden bei 37° C in 2 ml TN-Puffer (20 mM Tris ph 8, 150 mM NaCl) in An- und Abwesenheit von 10 µM Testsubstanz inkubiert. Die Bildung von LDL-Oxidationsprodukten wurde anhand thiobarbitursäurereaktiver Substanzen (TBARS) bei OD532 16 und 23 Stunden nach Beginn der Inkubation gemessen. Tabelle 2

[4] = system: arteriosklerotischen Arterienwandgewebe; assay: Reduction of LDL catabolism in arteriosclerotic arterial wall tissue (131J-TDS-LDL incorporation); assay type: in vivo; details: cholesterol-fed Kaninchen, 0.2 % Testsubstanz in diet for 10 Tage, 24 Stunden after LDL infusion, thorakale Aorta; mean ± SEM (range); control 65.7 ± 3.9
From the text: Beim arteriosklerotischen Kaninchen ist die Wirkung der neuen Phenolether direkt am arteriosklerotischen Plaque nachzuweisen. 131I-TDS-LDL, ein Radioiod-LDL, das von den Zellen nach oxydativer Modifikation aufgenommen wird, akkumuliert nach i.v. Gabe massiv im Plaquegewebe. Die neuen Phenolether hemmen signifikant und massiv den LDL-Katabolismus und damit die Cholesterinüberladung der Arterienwandzellen. Daraus resultiert langfristig die Hemmung des Wachstums der Läsionen (Tab. 4).
Jeweils 6 Kaninchen in der Kontrollgruppe und Bsp.l-Gruppe, bzw. 3 Kaninchen in der Probucol-Gruppe für 3 Monate mit 0.5 % Cholesterin-fettreicher Kaninchendiät gefüttert. Die Tiere der verschiedenen Gruppen haben S-Cholspiegel von 1028±99 (771-1358) - 1155±200 (655-1787) mg % am Ende der Fütterungsphase und- ein Körpergewicht von 3050-3680 g erreicht. Die Tiere erhalten dann für 10 Tage 0.2 % Testsubstanz in der fettreichen Diät und anschließend eine Infusion von ¹³¹J-Deoxysorbitol-LDL. Der Einbau von ¹³¹J-Deoxysorbitol in den Arterienwandzellen erfolgt ganz überwiegend in der arteriosklerotischen Läsion und ermöglicht die Quantifizierung des LDL-Umsatzes in den Zellen. 24 Stunden nach der Infusion des LDL werden die Tiere getötet und die thorakale Aorta präpariert. […]

**Q.** Which results are given for `CC(C)(C)c1cc(OCCCOc2cc(C(C)(C)C)c(O)c(C(C)(C)C)c2)cc(C(C)(C)C)c1O` [Bsp. 1, 1,3-Bis-[4-hydroxy-3,5-di-tert.butyl-phenoxy]propan]?
**A.** IC50 [1]: 50 nM; CE/FC [2]: 0.48 µg/µg; TBARS (OD 532) % ([3]; 16 Std., control 75): 19%; TBARS (OD 532) % ([3]; 23 Std., control 100): 76%; Einbau von 131J-TDS-LDLnorm±SEM ng/(mm³xdt/2) [4]: 35 ± 1,9 (7-63) ng/(mm³xdt/2)

**Q.** For `CC(C)(Sc1cc(C(C)(C)C)c(O)c(C(C)(C)C)c1)Sc1cc(C(C)(C)C)c(O)c(C(C)(C)C)c1` [Probucol, 4,4'[Isopropylidendithio]-bis(2,6-di-tert.-butyl), reference compound], which “CE/FC” value [2] is on record?
**A.** The value was 0.52 µg/µg.

**Q.** And the “TBARS (OD 532) %” value ([3]; 16 Std., control 75)?
**A.** The value was 56%.

**Q.** And the “TBARS (OD 532) %” value ([3]; 23 Std., control 100)?
**A.** Its value is 88%.

**Q.** What about the “Einbau von 131J-TDS-LDLnorm±SEM ng/(mm³xdt/2)” value [4] of the same molecule?
**A.** The value was 84 ± 7.5 (40-144) ng/(mm³xdt/2).
